Data: ChEMBL document CHEMBL1909046, “DrugMatrix in vitro pharmacology data”

Legend:
Vasopressin V1a receptor = Vasopressin V1a receptor (Homo sapiens, UniProt P37288); format: cell membranes, Membrane; settings: hek293; note: in other assays of this panel Not Active means under 50% inhibition at 10 µM
Substance-K receptor = target: T1, Substance-K receptor (Homo sapiens, UniProt P21452); format: cell membranes, CHO, Membrane; settings: cho; note: in other assays of this panel Not Active means under 50% inhibition at 10 µM
T1 sequence (P21452 whole entry): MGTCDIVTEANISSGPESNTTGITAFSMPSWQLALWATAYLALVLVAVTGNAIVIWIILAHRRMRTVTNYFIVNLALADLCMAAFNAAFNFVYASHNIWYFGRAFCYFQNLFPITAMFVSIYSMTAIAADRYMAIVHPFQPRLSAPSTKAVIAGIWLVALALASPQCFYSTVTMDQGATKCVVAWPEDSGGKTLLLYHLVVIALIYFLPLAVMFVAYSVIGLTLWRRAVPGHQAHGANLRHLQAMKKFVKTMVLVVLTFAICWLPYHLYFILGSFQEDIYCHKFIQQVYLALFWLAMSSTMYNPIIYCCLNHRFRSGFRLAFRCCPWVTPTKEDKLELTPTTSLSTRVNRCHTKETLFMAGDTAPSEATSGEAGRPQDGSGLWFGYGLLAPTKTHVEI

Melanocortin receptor 3 = Melanocortin receptor 3 (Homo sapiens, UniProt P41968); format: cell membranes, HEK293, Membrane; settings: hek293; note: in other assays of this panel Not Active means under 50% inhibition at 10 µM
[1] = DRUGMATRIX: Purinergic P2X radioligand binding (ligand: [3H] alpha, beta-Methylene-ATP); format: cell membranes, Oryctolagus cuniculus, New Zealand albino, Urinary bladder, Membrane; settings: Not Active = under 50% inhibition at 10 µM
[2] = target: T2, C-X-C chemokine receptor type 2 (Homo sapiens, UniProt P25025); format: cell membranes, Membrane; settings: cho-k1; note: in other assays of this panel Not Active means under 50% inhibition at 10 µM
T2 sequence (P25025 whole entry): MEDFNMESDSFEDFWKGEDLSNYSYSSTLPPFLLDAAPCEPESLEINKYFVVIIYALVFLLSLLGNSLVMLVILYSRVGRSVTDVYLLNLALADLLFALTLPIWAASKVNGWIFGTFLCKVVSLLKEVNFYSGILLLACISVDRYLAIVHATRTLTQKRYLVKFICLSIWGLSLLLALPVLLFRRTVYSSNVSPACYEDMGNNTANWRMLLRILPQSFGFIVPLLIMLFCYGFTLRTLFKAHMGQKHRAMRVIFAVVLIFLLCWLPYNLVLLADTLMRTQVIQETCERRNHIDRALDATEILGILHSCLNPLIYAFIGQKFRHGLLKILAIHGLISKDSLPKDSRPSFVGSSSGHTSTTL

Thromboxane-A synthase = target: T3, Thromboxane-A synthase (Homo sapiens, UniProt P24557); assay: biochemical; format: tissue-based, Platelet
T3 sequence (P24557 whole entry): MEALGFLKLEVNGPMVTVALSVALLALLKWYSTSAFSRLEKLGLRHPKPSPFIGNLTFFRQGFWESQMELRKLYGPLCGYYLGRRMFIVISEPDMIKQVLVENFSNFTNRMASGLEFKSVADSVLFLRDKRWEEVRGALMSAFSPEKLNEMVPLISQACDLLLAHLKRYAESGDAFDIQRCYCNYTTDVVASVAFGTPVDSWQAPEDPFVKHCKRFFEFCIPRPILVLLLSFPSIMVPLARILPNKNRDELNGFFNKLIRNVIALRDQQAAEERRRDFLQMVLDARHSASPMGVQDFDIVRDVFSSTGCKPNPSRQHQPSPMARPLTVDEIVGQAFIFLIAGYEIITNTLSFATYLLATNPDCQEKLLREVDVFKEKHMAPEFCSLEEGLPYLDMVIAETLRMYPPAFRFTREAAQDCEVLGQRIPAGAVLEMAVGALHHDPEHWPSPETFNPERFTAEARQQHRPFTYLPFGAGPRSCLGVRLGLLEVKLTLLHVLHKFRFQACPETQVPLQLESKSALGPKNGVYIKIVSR

[3] = target: T4, Nitric oxide synthase, inducible (Mus musculus, UniProt P29477); set-up: species or system Escherichia coli
T4 sequence (P29477 whole entry): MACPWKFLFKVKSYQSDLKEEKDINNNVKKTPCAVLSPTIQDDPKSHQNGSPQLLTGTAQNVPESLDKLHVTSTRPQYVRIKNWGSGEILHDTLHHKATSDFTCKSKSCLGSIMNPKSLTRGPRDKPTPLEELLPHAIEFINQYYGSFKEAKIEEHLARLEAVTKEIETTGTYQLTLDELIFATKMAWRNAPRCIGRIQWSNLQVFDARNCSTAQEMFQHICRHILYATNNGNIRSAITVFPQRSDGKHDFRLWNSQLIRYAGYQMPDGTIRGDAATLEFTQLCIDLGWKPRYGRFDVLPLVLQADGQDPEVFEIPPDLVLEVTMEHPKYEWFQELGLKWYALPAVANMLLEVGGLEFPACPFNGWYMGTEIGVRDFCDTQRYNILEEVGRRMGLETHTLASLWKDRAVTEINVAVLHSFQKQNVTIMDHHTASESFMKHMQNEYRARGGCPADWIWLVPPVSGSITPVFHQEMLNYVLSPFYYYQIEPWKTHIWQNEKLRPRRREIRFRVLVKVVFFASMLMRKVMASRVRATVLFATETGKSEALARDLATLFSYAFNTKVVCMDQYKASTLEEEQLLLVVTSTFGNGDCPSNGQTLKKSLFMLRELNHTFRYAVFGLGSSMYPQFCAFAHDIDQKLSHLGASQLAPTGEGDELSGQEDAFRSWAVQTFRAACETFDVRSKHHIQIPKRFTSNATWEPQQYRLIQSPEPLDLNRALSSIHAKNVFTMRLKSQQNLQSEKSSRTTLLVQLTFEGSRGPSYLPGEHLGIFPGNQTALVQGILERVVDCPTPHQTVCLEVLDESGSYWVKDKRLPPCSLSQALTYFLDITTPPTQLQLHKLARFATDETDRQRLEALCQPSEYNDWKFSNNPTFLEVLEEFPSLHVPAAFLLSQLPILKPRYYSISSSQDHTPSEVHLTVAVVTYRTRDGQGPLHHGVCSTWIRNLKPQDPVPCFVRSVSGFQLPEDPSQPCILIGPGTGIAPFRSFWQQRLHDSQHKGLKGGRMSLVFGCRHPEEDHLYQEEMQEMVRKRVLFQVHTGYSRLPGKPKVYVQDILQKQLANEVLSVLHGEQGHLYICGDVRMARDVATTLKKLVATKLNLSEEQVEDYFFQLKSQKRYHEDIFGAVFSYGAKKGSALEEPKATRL

Sequence of Melanocortin receptor 3 (P41968 whole entry): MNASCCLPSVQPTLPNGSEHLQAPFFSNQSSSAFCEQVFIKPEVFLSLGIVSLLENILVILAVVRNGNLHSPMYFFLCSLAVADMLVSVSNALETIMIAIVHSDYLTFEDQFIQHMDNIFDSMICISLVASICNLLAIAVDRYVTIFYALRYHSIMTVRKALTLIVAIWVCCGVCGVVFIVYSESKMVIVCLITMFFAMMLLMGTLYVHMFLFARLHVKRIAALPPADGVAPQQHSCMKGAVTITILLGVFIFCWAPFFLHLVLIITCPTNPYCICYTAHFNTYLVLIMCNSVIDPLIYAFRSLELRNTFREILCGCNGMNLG
Sequence of Vasopressin V1a receptor (P37288 whole entry): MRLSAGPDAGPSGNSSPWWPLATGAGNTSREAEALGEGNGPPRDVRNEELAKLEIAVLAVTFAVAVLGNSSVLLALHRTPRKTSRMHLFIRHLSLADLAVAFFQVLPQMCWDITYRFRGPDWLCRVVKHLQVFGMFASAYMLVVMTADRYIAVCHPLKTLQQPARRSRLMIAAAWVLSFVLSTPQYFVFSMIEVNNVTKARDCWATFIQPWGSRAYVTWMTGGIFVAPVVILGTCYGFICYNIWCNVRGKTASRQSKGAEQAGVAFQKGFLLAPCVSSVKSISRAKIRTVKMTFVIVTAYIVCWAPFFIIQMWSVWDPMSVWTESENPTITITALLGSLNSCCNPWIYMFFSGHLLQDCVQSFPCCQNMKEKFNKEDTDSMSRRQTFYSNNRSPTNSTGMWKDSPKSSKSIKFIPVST

Row | SMILES | IC50 (Vasopressin V1a receptor) | IC50 (Substance-K receptor) | IC50 (Melanocortin receptor 3) | IC50 [1] | Ki [1] | IC50 [2] | IC50 (Thromboxane-A synthase; platelet) | IC50 [3] | IC50 (Thromboxane-A synthase; read-out: IC50)
1 | CC(C)C(=O)Nc1ccc([N+](=O)[O-])c(C(F)(F)F)c1 [FLUTAMIDE] | Not Active | Not Active | Not Active | Not Active | Not Active | Not Active | Not Active | Not Active | –
2 | CC(C)[C@H]1C(=O)N2CCC[C@H]2[C@]2(O)O[C@](NC(=O)[C@@H]3C=C4c5cccc6[nH]cc(c56)C[C@H]4N(C)C3)(C(C)C)C(=O)N12 [ERGOCORNINE] | Not Active | Not Active | Not Active | Not Active | Not Active | Not Active | – | Not Active | 1990 nM
3 | CC(C)(Oc1ccc(Cl)cc1)C(=O)O [CLOFIBRIC ACID] | Not Active | Not Active | Not Active | Not Active | Not Active | Not Active | Not Active | Not Active | –
4 | CCCC1O[C@@H]2C[C@H]3[C@@H]4CCC5=CC(=O)C=C[C@]5(C)[C@H]4[C@@H](O)C[C@]3(C)[C@]2(C(=O)CO)O1 (some centres undefined) [BUDESONIDE] | Not Active | Not Active | Not Active | Not Active | Not Active | Not Active | Not Active | Not Active | –
5 | O=C(CCCN1CC=C(n2c(=O)[nH]c3ccccc32)CC1)c1ccc(F)cc1 [DROPERIDOL] | Not Active | Not Active | Not Active | Not Active | Not Active | Not Active | Not Active | Not Active | –
6 | Clc1cccc(Cl)c1NC1=NCCN1 [CLONIDINE] | Not Active | Not Active | Not Active | Not Active | Not Active | Not Active | Not Active | Not Active | –
7 | Cc1onc(O)c1CC(N)C(=O)O (racemic) [(R,S)-AMPA] | Not Active | Not Active | Not Active | Not Active | Not Active | Not Active | Not Active | Not Active | –
8 | CCOC(=O)C1=C(COCCN)NC(C)=C(C(=O)OC)C1c1ccccc1Cl (centres undefined) [AMLODIPINE] | Not Active | Not Active | Not Active | Not Active | Not Active | Not Active | Not Active | Not Active | –
